Experimental data published in ChEMBL document CHEMBL1139649, “Hetaryl imidazoles: a novel dual inhibitors of VEGF receptors I and II” (Bioorg Med Chem Lett, 2006).

target: Receptor tyrosine-protein kinase erbB-2 (Homo sapiens) (UniProt P04626); assay: […] against ErbB2 at 10 uM by HTRF method

Activity [%] | SMILES
< 30 | Cn1cnc(NCc2cccnc2)c1-c1nnc(Nc2ccc(Cl)cc2)o1
< 30 | Cn1cnc(NCc2ccccn2)c1-c1nnc(Nc2ccc(Cl)cc2)o1
< 30 | Cn1cnc(NCc2ccc3[nH]ncc3c2)c1-c1nnc(Nc2ccc(Cl)cc2)o1

target: T1, Ephrin type-B receptor 4 (Homo sapiens) (UniProt P54760); assay: Percent inhibition against EphB4 at 10 uM by HTRF method; set-up: scale not given: the % may be the effect or the level left
T1 sequence (whole entry): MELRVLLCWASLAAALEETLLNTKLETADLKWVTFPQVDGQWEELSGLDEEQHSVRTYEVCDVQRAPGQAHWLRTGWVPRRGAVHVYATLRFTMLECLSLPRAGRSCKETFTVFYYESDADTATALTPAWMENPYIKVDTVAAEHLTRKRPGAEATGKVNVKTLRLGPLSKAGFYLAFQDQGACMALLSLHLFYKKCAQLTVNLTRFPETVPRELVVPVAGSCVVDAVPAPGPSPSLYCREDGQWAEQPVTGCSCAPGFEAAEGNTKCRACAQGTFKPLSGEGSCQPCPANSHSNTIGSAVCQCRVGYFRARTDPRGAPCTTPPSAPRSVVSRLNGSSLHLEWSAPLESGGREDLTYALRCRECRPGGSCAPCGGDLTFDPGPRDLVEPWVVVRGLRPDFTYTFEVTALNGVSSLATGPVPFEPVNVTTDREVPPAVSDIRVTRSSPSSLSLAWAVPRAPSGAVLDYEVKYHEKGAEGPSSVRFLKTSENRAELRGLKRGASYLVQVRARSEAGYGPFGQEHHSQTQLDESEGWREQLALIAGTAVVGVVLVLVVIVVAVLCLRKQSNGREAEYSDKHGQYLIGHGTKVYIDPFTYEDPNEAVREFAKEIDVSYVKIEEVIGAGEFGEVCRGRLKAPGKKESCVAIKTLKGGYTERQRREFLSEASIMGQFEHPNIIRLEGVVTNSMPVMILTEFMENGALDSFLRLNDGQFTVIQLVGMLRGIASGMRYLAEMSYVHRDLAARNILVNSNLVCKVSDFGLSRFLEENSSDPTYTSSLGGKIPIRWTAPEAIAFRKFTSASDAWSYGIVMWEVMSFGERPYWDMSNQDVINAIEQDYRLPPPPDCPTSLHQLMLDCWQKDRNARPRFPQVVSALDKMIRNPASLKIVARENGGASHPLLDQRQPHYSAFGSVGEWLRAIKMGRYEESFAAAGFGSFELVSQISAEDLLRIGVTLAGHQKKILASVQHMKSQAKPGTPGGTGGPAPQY

Activity [%] | SMILES
< 30 | Cn1cnc(NCc2cccnc2)c1-c1nnc(Nc2ccc(Cl)cc2)o1
< 30 | Cn1cnc(NCc2ccccn2)c1-c1nnc(Nc2ccc(Cl)cc2)o1
< 30 | Cn1cnc(NCc2ccc3[nH]ncc3c2)c1-c1nnc(Nc2ccc(Cl)cc2)o1

target: T2, Vascular endothelial growth factor receptor 2 (Homo sapiens, UniProt P35968); assay: Inhibition of VEGFR2 in 293 adenovirus transfected kidney cells by cell-based ELISA assay

IC50 [µM] | SMILES
> 10 | Cn1cnc(NCc2cccnc2)c1-c1nnc(Nc2ccc(Cl)cc2)o1
> 10 | Cn1cnc(NCc2ccccn2)c1-c1nnc(Nc2ccc(Cl)cc2)o1
> 10 | Cn1cnc(NCc2ccc3[nH]ncc3c2)c1-c1nnc(Nc2ccc(Cl)cc2)o1

target: RAC-alpha serine/threonine-protein kinase (Homo sapiens) (UniProt P31749); assay: […] against PKB/Akt at 10 uM by HTRF method
Sequence (P31749 whole entry): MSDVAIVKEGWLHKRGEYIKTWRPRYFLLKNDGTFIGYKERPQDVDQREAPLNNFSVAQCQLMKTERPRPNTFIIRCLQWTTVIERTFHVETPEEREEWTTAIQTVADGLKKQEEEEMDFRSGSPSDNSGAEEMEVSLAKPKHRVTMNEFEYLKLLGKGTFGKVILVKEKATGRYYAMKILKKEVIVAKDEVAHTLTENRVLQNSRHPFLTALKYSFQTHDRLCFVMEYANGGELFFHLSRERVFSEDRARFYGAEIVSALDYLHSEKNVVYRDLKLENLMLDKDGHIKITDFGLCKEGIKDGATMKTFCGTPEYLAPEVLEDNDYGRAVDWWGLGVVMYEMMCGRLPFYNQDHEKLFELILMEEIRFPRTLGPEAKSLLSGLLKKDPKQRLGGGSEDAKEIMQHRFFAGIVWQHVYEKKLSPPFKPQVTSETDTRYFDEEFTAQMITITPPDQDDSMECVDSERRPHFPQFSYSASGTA

Activity [%] | SMILES
< 30 | Cn1cnc(NCc2cccnc2)c1-c1nnc(Nc2ccc(Cl)cc2)o1
< 30 | Cn1cnc(NCc2ccccn2)c1-c1nnc(Nc2ccc(Cl)cc2)o1
< 30 | Cn1cnc(NCc2ccc3[nH]ncc3c2)c1-c1nnc(Nc2ccc(Cl)cc2)o1

target: Vascular endothelial growth factor receptor 1 (Homo sapiens, UniProt P17948); assay: Inhibition of VEGFR1 by enzymatic assay
Sequence (P17948 whole entry): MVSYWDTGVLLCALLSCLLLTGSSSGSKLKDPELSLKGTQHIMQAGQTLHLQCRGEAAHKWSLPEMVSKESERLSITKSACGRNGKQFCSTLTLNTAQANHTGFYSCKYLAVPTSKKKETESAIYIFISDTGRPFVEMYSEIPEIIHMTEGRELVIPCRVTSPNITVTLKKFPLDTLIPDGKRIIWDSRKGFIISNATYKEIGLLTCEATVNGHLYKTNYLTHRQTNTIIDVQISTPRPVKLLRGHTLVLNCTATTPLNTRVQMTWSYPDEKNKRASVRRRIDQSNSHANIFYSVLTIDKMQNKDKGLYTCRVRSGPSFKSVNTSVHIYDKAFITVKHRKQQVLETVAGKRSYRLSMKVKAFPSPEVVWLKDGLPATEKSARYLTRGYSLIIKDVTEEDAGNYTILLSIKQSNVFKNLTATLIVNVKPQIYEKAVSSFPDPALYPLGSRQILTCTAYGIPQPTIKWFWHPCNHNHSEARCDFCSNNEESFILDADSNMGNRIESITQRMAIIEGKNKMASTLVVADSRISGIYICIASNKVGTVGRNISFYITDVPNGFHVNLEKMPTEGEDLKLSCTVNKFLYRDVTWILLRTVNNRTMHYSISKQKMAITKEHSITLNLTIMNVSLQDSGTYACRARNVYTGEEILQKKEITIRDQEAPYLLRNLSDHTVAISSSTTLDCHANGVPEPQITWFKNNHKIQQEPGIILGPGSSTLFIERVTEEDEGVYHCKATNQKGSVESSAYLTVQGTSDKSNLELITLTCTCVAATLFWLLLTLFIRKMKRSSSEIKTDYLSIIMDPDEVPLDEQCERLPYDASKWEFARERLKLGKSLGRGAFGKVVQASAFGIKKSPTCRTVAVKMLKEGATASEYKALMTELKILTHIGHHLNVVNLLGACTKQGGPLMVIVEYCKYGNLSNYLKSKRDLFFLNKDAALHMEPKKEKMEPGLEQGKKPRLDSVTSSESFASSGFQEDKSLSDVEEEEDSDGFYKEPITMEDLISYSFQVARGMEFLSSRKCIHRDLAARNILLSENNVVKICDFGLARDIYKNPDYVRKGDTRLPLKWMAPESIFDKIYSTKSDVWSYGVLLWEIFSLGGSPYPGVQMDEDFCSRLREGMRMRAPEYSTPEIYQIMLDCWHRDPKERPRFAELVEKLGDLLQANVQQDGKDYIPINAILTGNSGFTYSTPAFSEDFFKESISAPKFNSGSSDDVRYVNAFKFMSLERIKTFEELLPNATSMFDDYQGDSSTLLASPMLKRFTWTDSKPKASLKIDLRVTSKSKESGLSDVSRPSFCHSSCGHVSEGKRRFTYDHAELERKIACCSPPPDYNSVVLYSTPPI

IC50 [µM] | SMILES
> 10 | Cn1cnc(NCc2cccnc2)c1-c1nnc(Nc2ccc(Cl)cc2)o1
> 10 | Cn1cnc(NCc2ccccn2)c1-c1nnc(Nc2ccc(Cl)cc2)o1
> 10 | Cn1cnc(NCc2ccc3[nH]ncc3c2)c1-c1nnc(Nc2ccc(Cl)cc2)o1

target: Hepatocyte growth factor receptor (Homo sapiens) (UniProt P08581); assay: Percent inhibition against c-Met at 10 uM by HTRF method; set-up: scale not given: the % may be the effect or the level left

Activity [%] | SMILES
< 30 | Cn1cnc(NCc2cccnc2)c1-c1nnc(Nc2ccc(Cl)cc2)o1
< 30 | Cn1cnc(NCc2ccccn2)c1-c1nnc(Nc2ccc(Cl)cc2)o1
< 30 | Cn1cnc(NCc2ccc3[nH]ncc3c2)c1-c1nnc(Nc2ccc(Cl)cc2)o1

target: Epidermal growth factor receptor (Homo sapiens) (UniProt P00533); assay: […] against ErbB1 at 10 uM by HTRF method

Percent inhibition [%] | SMILES
< 30 | Cn1cnc(NCc2cccnc2)c1-c1nnc(Nc2ccc(Cl)cc2)o1
< 30 | Cn1cnc(NCc2ccccn2)c1-c1nnc(Nc2ccc(Cl)cc2)o1
< 30 | Cn1cnc(NCc2ccc3[nH]ncc3c2)c1-c1nnc(Nc2ccc(Cl)cc2)o1

target: Fibroblast growth factor receptor 1 (Homo sapiens) (UniProt P11362); assay: Percent inhibition against FGFR1 at 10 uM by HTRF method; set-up: scale not given: the % may be the effect or the level left
Sequence (P11362 22-822 limits assumed): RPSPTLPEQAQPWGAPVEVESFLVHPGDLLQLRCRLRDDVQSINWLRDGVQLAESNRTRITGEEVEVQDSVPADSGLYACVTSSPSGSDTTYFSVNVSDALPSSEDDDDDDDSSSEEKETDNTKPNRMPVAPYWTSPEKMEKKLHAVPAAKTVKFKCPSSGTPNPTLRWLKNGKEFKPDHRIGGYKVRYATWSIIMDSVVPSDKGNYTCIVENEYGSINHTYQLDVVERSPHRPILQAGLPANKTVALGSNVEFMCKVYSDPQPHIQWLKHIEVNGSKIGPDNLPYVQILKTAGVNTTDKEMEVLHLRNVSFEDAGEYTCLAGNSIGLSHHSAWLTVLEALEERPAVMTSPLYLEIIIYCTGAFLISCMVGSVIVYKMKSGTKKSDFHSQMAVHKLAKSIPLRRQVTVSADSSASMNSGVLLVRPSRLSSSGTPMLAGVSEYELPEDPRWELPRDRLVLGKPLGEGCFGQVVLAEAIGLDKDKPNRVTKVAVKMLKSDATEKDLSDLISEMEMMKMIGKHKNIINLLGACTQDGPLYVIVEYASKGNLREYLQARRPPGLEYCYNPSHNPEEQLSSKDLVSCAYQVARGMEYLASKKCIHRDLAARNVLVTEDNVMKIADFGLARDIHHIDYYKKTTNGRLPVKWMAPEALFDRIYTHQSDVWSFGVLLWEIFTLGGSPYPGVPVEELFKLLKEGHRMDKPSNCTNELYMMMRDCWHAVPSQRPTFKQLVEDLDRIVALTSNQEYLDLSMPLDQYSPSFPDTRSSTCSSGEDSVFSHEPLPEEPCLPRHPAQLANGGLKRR

Activity [%] | SMILES
< 30 | Cn1cnc(NCc2cccnc2)c1-c1nnc(Nc2ccc(Cl)cc2)o1
< 30 | Cn1cnc(NCc2ccccn2)c1-c1nnc(Nc2ccc(Cl)cc2)o1
< 30 | Cn1cnc(NCc2ccc3[nH]ncc3c2)c1-c1nnc(Nc2ccc(Cl)cc2)o1

target: Cyclin-dependent kinase 5 (Homo sapiens) (UniProt Q00535); assay: […] against Cdk5 at 10 uM by HTRF method
Sequence (Q00535 whole entry, looked up): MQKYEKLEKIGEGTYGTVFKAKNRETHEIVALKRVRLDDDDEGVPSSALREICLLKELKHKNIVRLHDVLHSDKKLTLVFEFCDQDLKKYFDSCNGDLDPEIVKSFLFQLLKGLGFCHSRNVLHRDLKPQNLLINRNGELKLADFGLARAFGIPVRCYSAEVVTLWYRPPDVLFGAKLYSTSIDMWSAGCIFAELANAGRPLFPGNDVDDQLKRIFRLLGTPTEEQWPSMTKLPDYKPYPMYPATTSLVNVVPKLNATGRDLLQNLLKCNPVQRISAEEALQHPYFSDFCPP

Activity [%] | SMILES
< 30 | Cn1cnc(NCc2cccnc2)c1-c1nnc(Nc2ccc(Cl)cc2)o1
< 30 | Cn1cnc(NCc2ccccn2)c1-c1nnc(Nc2ccc(Cl)cc2)o1
< 30 | Cn1cnc(NCc2ccc3[nH]ncc3c2)c1-c1nnc(Nc2ccc(Cl)cc2)o1

target: Glycogen synthase kinase-3 beta (Homo sapiens) (UniProt P49841); assay: Inhibition against GSK3-beta at 10 uM by HTRF method; set-up: scale not given: the % may be the effect or the level left
Sequence (P49841 whole entry, looked up): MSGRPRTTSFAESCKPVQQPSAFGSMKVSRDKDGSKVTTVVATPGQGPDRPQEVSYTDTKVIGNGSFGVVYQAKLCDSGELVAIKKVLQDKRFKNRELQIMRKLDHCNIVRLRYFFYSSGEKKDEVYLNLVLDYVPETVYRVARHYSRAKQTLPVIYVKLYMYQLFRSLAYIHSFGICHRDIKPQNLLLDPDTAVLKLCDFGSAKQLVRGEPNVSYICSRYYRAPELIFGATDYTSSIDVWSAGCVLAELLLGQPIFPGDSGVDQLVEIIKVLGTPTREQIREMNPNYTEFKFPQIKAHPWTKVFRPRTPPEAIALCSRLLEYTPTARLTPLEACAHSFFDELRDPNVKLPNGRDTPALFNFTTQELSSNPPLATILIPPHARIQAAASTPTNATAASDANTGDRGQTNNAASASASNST

Activity [%] | SMILES
< 30 | Cn1cnc(NCc2cccnc2)c1-c1nnc(Nc2ccc(Cl)cc2)o1
< 30 | Cn1cnc(NCc2ccccn2)c1-c1nnc(Nc2ccc(Cl)cc2)o1
< 30 | Cn1cnc(NCc2ccc3[nH]ncc3c2)c1-c1nnc(Nc2ccc(Cl)cc2)o1

target: cAMP-dependent protein kinase (PKA) (Homo sapiens) (UniProt P22694+P17612+P22612); assay: Inhibition against PKA at 10 uM by HTRF method; type: protein assay; set-up: scale not given: the % may be the effect or the level left

Activity [%] | SMILES
< 30 | Cn1cnc(NCc2cccnc2)c1-c1nnc(Nc2ccc(Cl)cc2)o1
< 30 | Cn1cnc(NCc2ccccn2)c1-c1nnc(Nc2ccc(Cl)cc2)o1
< 30 | Cn1cnc(NCc2ccc3[nH]ncc3c2)c1-c1nnc(Nc2ccc(Cl)cc2)o1

target: Bcr/Abl fusion protein (Homo sapiens) (UniProt P00519+P11274); assay: Inhibition of bcr-Abl at 10 uM by HTRF method; type: protein assay; set-up: scale not given: the % may be the effect or the level left

Activity [%] | SMILES
< 30 | Cn1cnc(NCc2cccnc2)c1-c1nnc(Nc2ccc(Cl)cc2)o1
< 30 | Cn1cnc(NCc2ccccn2)c1-c1nnc(Nc2ccc(Cl)cc2)o1
< 30 | Cn1cnc(NCc2ccc3[nH]ncc3c2)c1-c1nnc(Nc2ccc(Cl)cc2)o1

target: Cyclin-dependent kinase 2 (Homo sapiens) (UniProt P24941); assay: […] against Cdk2 at 10 uM by HTRF method

Percent inhibition [%] | SMILES
< 30 | Cn1cnc(NCc2cccnc2)c1-c1nnc(Nc2ccc(Cl)cc2)o1
< 30 | Cn1cnc(NCc2ccccn2)c1-c1nnc(Nc2ccc(Cl)cc2)o1
< 30 | Cn1cnc(NCc2ccc3[nH]ncc3c2)c1-c1nnc(Nc2ccc(Cl)cc2)o1

target: Receptor-type tyrosine-protein kinase FLT3 (Homo sapiens) (UniProt P36888); assay: Inhibition of Flt3 at 10 uM by HTRF method; set-up: scale not given: the % may be the effect or the level left
Sequence (P36888 whole entry): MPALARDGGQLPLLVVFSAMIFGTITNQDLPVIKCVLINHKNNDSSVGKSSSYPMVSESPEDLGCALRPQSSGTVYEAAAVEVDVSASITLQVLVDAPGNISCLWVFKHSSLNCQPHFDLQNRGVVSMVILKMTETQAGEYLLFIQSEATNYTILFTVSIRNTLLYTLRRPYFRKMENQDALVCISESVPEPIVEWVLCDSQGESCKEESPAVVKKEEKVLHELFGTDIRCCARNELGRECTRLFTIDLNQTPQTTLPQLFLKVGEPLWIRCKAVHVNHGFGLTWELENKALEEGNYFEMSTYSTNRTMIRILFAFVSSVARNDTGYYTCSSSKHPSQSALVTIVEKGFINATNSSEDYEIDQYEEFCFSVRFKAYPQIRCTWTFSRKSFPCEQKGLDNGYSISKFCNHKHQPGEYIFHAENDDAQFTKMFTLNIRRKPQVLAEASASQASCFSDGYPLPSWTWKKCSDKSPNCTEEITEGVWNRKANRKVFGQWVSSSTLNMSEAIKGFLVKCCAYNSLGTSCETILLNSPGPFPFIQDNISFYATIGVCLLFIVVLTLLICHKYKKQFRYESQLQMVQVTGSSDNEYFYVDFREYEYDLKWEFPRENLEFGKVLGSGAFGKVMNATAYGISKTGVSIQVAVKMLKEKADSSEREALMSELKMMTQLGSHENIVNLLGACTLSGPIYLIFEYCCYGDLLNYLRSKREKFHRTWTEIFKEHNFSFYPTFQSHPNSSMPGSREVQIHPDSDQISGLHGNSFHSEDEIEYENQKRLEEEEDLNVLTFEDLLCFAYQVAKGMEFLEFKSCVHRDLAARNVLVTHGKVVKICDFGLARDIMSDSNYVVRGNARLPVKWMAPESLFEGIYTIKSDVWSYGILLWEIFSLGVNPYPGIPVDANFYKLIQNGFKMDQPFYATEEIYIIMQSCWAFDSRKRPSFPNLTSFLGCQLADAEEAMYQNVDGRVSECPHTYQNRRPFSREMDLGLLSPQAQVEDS

Activity [%] | SMILES
< 30 | Cn1cnc(NCc2cccnc2)c1-c1nnc(Nc2ccc(Cl)cc2)o1
< 30 | Cn1cnc(NCc2ccccn2)c1-c1nnc(Nc2ccc(Cl)cc2)o1
< 30 | Cn1cnc(NCc2ccc3[nH]ncc3c2)c1-c1nnc(Nc2ccc(Cl)cc2)o1

target: T2, Vascular endothelial growth factor receptor 2; assay: Inhibition of VEGFR2 by enzymatic assay

IC50 [µM] | SMILES
> 10 | Cn1cnc(NCc2cccnc2)c1-c1nnc(Nc2ccc(Cl)cc2)o1
> 10 | Cn1cnc(NCc2ccccn2)c1-c1nnc(Nc2ccc(Cl)cc2)o1
2.37 | Cn1cnc(NCc2ccc3[nH]ncc3c2)c1-c1nnc(Nc2ccc(Cl)cc2)o1

target: Insulin-like growth factor 1 receptor (Homo sapiens) (UniProt P08069); assay: […] against IGF1R at 10 uM by HTRF method

Activity [%] | SMILES
< 30 | Cn1cnc(NCc2cccnc2)c1-c1nnc(Nc2ccc(Cl)cc2)o1
< 30 | Cn1cnc(NCc2ccccn2)c1-c1nnc(Nc2ccc(Cl)cc2)o1
< 30 | Cn1cnc(NCc2ccc3[nH]ncc3c2)c1-c1nnc(Nc2ccc(Cl)cc2)o1
